Test results from BindingDB's records for doi:10.1073/pnas.0707365104 (Institut National De La Sant&#163, 2007).
pIC50: −log10 of the molar value.

Test: Inhibition of human telomerase expressed in HEK293T cells treated after telomerase elongation by telomeric repeat amplification protocol assay

pIC50: 7.19
SMILES: CN(C)c1ccc(Nc2c3ccc(NC(=O)CCN4CCCC4)cc3nc3cc(NC(=O)CCN4CCCC4)ccc23)cc1 [N,N'-(9-{[4-(dimethylamino)phenyl]amino}acridine-3,6-diyl)bis(3-pyrrolidin-1-ylpropanamide)]
